Results: patent US11453671B2, “Pyrazolopyrimidine inhibitors of JAK kinases and uses thereof” (Genentech, Inc., priority 2020, dated 2022)
Like-named read-outs stand apart in the source and are kept apart here.

How the values were obtained:
Format in all cases: cell-based
Jurkat clone E6-1 cells = assay: Cell cytotoxicity assay Jurkat (CellTiter-Glo, 72 hours); conditions: Table 3; 72 hours, top concentration of 50 μM; read-out: Cytotox Jurkat EC50
Procedure, shortened: (§1)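 HEK-293T or Jurkat E6-1 cells plated at 450 cells/well were treated the next day with a 10-point titration from 50 μM top (0.5% DMSO final). After 72 h at 37° C, viability was read by CellTiter-Glo luminescence.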

HEK-293T cells = assay: Cell cytotoxicity assay HEK-293T (CellTiter-Glo, 72 hours); conditions: Table 3; 72 hours, top concentration of 50 μM; read-out: Cytotox K-293 EC50
Procedure, shortened: as §1

A549 cells = assay: Cell cytotoxicity assay A549 (CellTiter-Glo, 72 hours); conditions: Table 3; 72 hours, top concentration of 50 μM; read-out: Cytotox A549 EC50
Procedure, shortened: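 A549 cells were plated overnight, then exposed for 72 h at 37 °C to a 10-point compound titration (top 50 μM, 0.5% DMSO final). Viability was read as CellTiter-Glo luminescence after 20 min at room temperature.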

[1] = tested on: JAK1 pathway: P-STAT6 in TF-1 human erythroleukemia cells + IL-13; assay: P-STAT6 TF-1+Interleukin-13 (IL-13) assay; conditions: IL-13 stimulation, read-out: Cellular JAK1 PSTAT6 TF-1 + IL13 IC50
Description: (§2) TF-1 human erythroleukemia cells (ATCC®; Manassas, Va.; Catalog No. CRL-2003™) were grown in Roswell Park Memorial Institute (RPMI) medium supplemented with 10% heat-inactivated fetal bovine serum (FBS), 2 ng/mL granulocyte-macrophage colony-stimulating factor, 1×non-essential amino acids (NEAA), and 1 mM sodium pyruvate. The day before the assay, the cultures were transferred to Opti-MEM™, 1×NEAA, 1 mM sodium pyruvate, and 0.5% charcoal-stripped FBS (starve medium). Inhibitor stock solutions (5 mM in DMSO) were serially diluted 1:2 in DMSO to generate a 10-point concentration titration (at 500×test concentration), which was further diluted by a 50-fold dilution in Assay Medium (RPMI containing 1×NEAA and 1 mM sodium pyruvate) to generate a 10×concentration titration (in 2% DMSO). The cells (300,000 cells/well in 35 μL of Assay Medium) were seeded in 384-well Greiner plates. Diluted inhibitor at 10×concentration (5 μL) was added to the cells and the plates were incubated for 30 minutes at 37° C. in a humidified incubator. Cells were stimulated with the human recombinant cytokine at the respective EC90 concentrations, as previously determined for each individual lot. For the phosphorylated signal transducer and activator of transcription 6 (P-STAT6) TF-1+Interleukin-13 (IL-13) assay, 10 μL of 250 ng/mL IL-13 (R&D Systems; Minneapolis, Minn.) was added to the cells, which were then incubated for 10 minutes at 37° C. For the P-STAT5 TF-1+Erythropoietin (EPO) assay, 10 μL of 110 IU/mL EPO (Gibco Life Technologies, Catalog No. PHC2054) was added to the cells, which were then incubated for 30 min at 37° C. For both assays, the incubation was followed by addition to the cells of 5 μL of ice-cold 10× cell lysis buffer (Cell Signaling Technologies; Danvers, Mass.; Catalog No. 9803S) containing 1 mM phenylmethylsulfonyl fluoride (PMSF). Assay plates were frozen at −80° C. for a minimum of 1 horn. In the IL-13 assay, P-STAT6 was measured by coating goat anti-rabbit (GAR) plates (Meso Scale Discovery [MSD]; Rockville, Md.; Catalog No. MSD L21RA-1) with rabbit anti-human total STAT6 antibody (Cell Signaling Technologies; Catalog No. 9362S), incubating the cell lysates in the coated plates overnight at 4° C., and then detecting with mouse anti-P-STAT6 (Tyr641) Clone 16E12 antibody (MilliporeSigma; Burlington, Mass.; Catalog No. 05-590, custom labeled by MSD with SULFO-tag) using standard MSD plate processing, washing, and detection protocols. In the EPO assay, P-STAT5 was detected using the phospho-STAT5a,b Whole Cell Lysate Kit (MSD; Catalog No. K150IGD-1). The electrochemiluminescence (ECL) signal of wells was read on the MESO SECTOR S600 (MSD) reader.

[2] = tested on: JAK2 pathway: P-STAT5 in TF-1 human erythroleukemia cells + EPO; assay: P-STAT5 TF-1+Erythropoietin (EPO) assay; conditions: EPO stimulation, read-out: Cellular JAK2 PSTAT5 TF-l + EPO IC50
Description: as §2

Structure (SMILES) | IC50 ([1]; Homo sapiens, TF-1, TF-1 cells) | IC50 ([2]; Homo sapiens, TF-1, TF-1 cells) | other results
CC(CO)S(=O)(=O)c1ccc(OC(F)F)c(-c2nn(C)cc2NC(=O)c2cnn3cccnc23)c1 (single isomer, unassigned) [Example 24, N-[3-[2-(difluoromethoxy)-5-(2-hydroxy-1-methyl-ethyl)sulfonyl-phenyl]-1-methyl-pyrazol-4-yl]pyrazolo[1,5-a]pyrimidine-3-carboxamide] | – | – | EC50 (Jurkat clone E6-1 cells): 37 µM; EC50 (HEK-293T cells): 22 µM; EC50 (A549 cells): ≥ 50 µM
Cn1cc(NC(=O)c2cnn3cccnc23)c(-c2cc(S(=O)(=O)C3COC3)ccc2OC(F)F)n1 [Example 13, N-[3-[2-(difluoromethoxy)-5-(oxetan-3-ylsulfonyl)phenyl]-1-methyl-pyrazol-4-yl]pyrazolo[1,5-a]pyrimidine-3-carboxamide] | 34 nM | 28 nM | –
Cn1cc(NC(=O)c2cnn3cccnc23)c(-c2cc(S(=O)(=O)C3CCCNC3)ccc2OC(F)F)n1 (single isomer, unassigned) [Example 37, N-[3-[2-(difluoromethoxy)-5-(3-piperidylsulfonyl)phenyl]-1-methyl-pyrazol-4-yl]pyrazolo[1,5-a]pyrimidine-3-carboxamide] | – | – | IC50 ([1]; TF-1 cells): 51 nM; IC50 ([2]; TF-1 cells): 38 nM
C[C@@H](O)CS(=O)(=O)c1ccc(OC(F)F)c(-c2nn(C)cc2NC(=O)c2cnn3cccnc23)c1 (stereo in doubt) [Example 25, N-[3-[2-(difluoromethoxy)-5-[rac-(2R)-2-hydroxypropyl]sulfonyl-phenyl]-1-methyl-pyrazol-4-yl]pyrazolo[1,5-a]pyrimidine-3-carboxamide] | 20 nM | 39 nM | –
CN(C)CCn1cc(S(=O)(=O)c2ccc(OC(F)F)c(-c3nn(C)cc3NC(=O)c3cnn4cccnc34)c2)cn1 [Example 49, N-[3-[2-(difluoromethoxy)-5-[1-[2-(dimethylamino)ethyl]pyrazol-4-yl]sulfonyl-phenyl]-1-methyl-pyrazol-4-yl]pyrazolo[1,5-a]pyrimidine-3-carboxamide] | 20 nM | 34 nM | –
Cn1cc(NC(=O)c2cnn3cccnc23)c(-c2cc(S(=O)(=O)CCO)ccc2OC(F)F)n1 [Example 5, N-[3-[2-(difluoromethoxy)-5-(2-hydroxyethylsulfonyl)phenyl]-1-methyl-pyrazol-4-yl]pyrazolo[1,5-a]pyrimidine-3-carboxamide] | 16 nM | 29 nM | –
Cn1cc(NC(=O)c2cnn3cccnc23)c(-c2cc3c(cc2OC(F)F)NCCS3(=O)=O)n1 [Example 46, N-[3-[6-(difluoromethoxy)-1,1-dioxo-3,4-dihydro-2H-1lambda6,4-benzothiazin-7-yl]-1-methyl-pyrazol-4-yl]pyrazolo[1,5-a]pyrimidine-3-carboxamide] | 27 nM | 61 nM | –
CC(CO)S(=O)(=O)c1ccc(OC(F)F)c(-c2nn(C)cc2NC(=O)c2cnn3cccnc23)c1 (single isomer, unassigned) [Example 23, N-[3-[2-(difluoromethoxy)-5-(2-hydroxy-1-methyl-ethyl)sulfonyl-phenyl]-1-methyl-pyrazol-4-yl]pyrazolo[1,5-a]pyrimidine-3-carboxamide] | 20 nM | 22 nM | –
Cn1cc(NC(=O)c2cnn3cccnc23)c(-c2cc(S(=O)(=O)c3cn[nH]c3)ccc2OC(F)F)n1 [Example 41, N-[3-[2-(difluoromethoxy)-5-(1H-pyrazol-4-ylsulfonyl)phenyl]-1-methyl-pyrazol-4-yl]pyrazolo[1,5-a]pyrimidine-3-carboxamide] | 15 nM | 34 nM | –
CN(C)CCS(=O)(=O)c1ccc(OC(F)F)c(-c2nn(C)cc2NC(=O)c2cnn3cccnc23)c1 [Example 7, N-[3-[2-(difluoromethoxy)-5-[2-(dimethylamino)ethylsulfonyl]phenyl]-1-methyl-pyrazol-4-yl]pyrazolo[1,5-a]pyrimidine-3-carboxamide] | 21 nM | 22 nM | –

The remaining compounds from weak to strong by IC50 ([1]; Homo sapiens, TF-1, TF-1 cells), led by results:

IC50 ([1]; Homo sapiens, TF-1, TF-1 cells) | IC50 ([2]; Homo sapiens, TF-1, TF-1 cells) | Structure (SMILES) | other results
14 nM | 15 nM | Cn1cc(NC(=O)c2cnn3cccnc23)c(-c2cc(S(=O)(=O)c3ccn(C)c(=O)c3)ccc2OC(F)F)n1 [Example 44, N-[3-[2-(difluoromethoxy)-5-[(1-methyl-2-oxo-4-pyridyl)sulfonyl]phenyl]-1-methyl-pyrazol-4-yl]pyrazolo[1,5-a]pyrimidine-3-carboxamide] | –
14 nM | 12 nM | Cn1cc(NC(=O)c2cnn3cccnc23)c(-c2cc(S(=O)(=O)C3CCC3)ccc2OC(F)F)n1 [Example 2, N-[3-[5-cyclobutylsulfonyl-2-(difluoromethoxy)phenyl]-1-methyl-pyrazol-4-yl]pyrazolo[1,5-a]pyrimidine-3-carboxamide] | –
13 nM | 28 nM | C[C@H](Cn1cc(S(=O)(=O)c2ccc(OC(F)F)c(-c3nn(C)cc3NC(=O)c3cnn4cccnc34)c2)cn1)N(C)C [Example 59, N-[3-[2-(difluoromethoxy)-5-[1-[(2R)-2-(dimethylamino)propyl]pyrazol-4-yl]sulfonyl-phenyl]-1-methyl-pyrazol-4-yl]pyrazolo[1,5-a]pyrimidine-3-carboxamide] | –
10 nM | 38 nM | N#CCn1cc(NC(=O)c2cnn3cccnc23)c(-c2cc(S(=O)(=O)C3CC3)ccc2OC(F)F)n1 [Example 45, N-[1-(cyanomethyl)-3-[5-cyclopropylsulfonyl-2-(difluoromethoxy)phenyl]pyrazol-4-yl]pyrazolo[1,5-a]pyrimidine-3-carboxamide] | –
8.7 nM | 9.1 nM | COc1cccc(S(=O)(=O)c2ccc(OC(F)F)c(-c3nn(C)cc3NC(=O)c3cnn4cccnc34)c2)c1 [Example 12, N-[3-[2-(difluoromethoxy)-5-(3-methoxyphenyl)sulfonyl-phenyl]-1-methyl-pyrazol-4-yl]pyrazolo[1,5-a]pyrimidine-3-carboxamide] | –
5.8 nM | 14 nM | Cn1cc(S(=O)(=O)c2ccc(OC(F)F)c(-c3nn(C)cc3NC(=O)c3cnn4cccnc34)c2)cn1 [Example 35, N-[3-[2-(difluoromethoxy)-5-(1-methylpyrazol-4-yl)sulfonyl-phenyl]-1-methyl-pyrazol-4-yl]pyrazolo[1,5-a]pyrimidine-3-carboxamide] | –
4.6 nM | 14 nM | Cn1cc(NC(=O)c2cnn3cccnc23)c(-c2cc(S(=O)(=O)C3CC3)ccc2OC(F)F)n1 [Example 22, N-[3-[5-cyclopropylsulfonyl-2-(difluoromethoxy)phenyl]-1-methyl-pyrazol-4-yl]pyrazolo[1,5-a]pyrimidine-3-carboxamide] | –
3.1 nM | 26 nM | CS(=O)(=O)c1ccc(OC(F)F)c(-c2nn(CC#N)cc2NC(=O)c2cnn3cccnc23)c1 [Example 28, N-[1-(cyanomethyl)-3-[2-(difluoromethoxy)-5-methylsulfonyl-phenyl]pyrazol-4-yl]pyrazolo[1,5-a]pyrimidine-3-carboxamide] | –
3.1 nM | 6.4 nM | Cn1cc(NC(=O)c2cnn3cccnc23)c(-c2cc(S(=O)(=O)c3ccccc3)ccc2OC(F)F)n1 [Example 40, N-[3-[5-(benzenesulfonyl)-2-(difluoromethoxy)phenyl]-1-methyl-pyrazol-4-yl]pyrazolo[1,5-a]pyrimidine-3-carboxamide] | –
